Reference: patent publication US6774121B1, “Phospholipid prodrugs of anti-proliferative drugs” (D-Pharm, Ltd., priority 1999, dated 2004)

Tests used:
[1] = system: human leukemia cell line CCRF-CEM (CEM); assay: MTT cell growth inhibition, CEM cells (Example 4); format: cell-based; settings: 72 hours, MTT assay; read-out: EC50, nMol CEM
Protocol: (§1) A series of methotrexate derivatives were screened for their inhibitory effect on cell growth. Three tumor cell lines were used for this screen: i) human leukemia cell line CCRF-CEM which is MTX-sensitive (herein denoted as CEM), ii) a mutant of CEM cell line which is MTX-resistant due to a mutation in the RFC (herein denoted as CEM-MTX; provided by Dr. […], Technion, Israel), and iii) rat C6 glioma cell line. Cells were seeded at a density of 10^4 cells/ml in RPMI medium supplemented with 10% FCS in 96 well plates. The cultured cells were incubated, during their linear growth phase, in the presence and absence of various concentrations of MTX derivatives. The tested compounds were prepared as 1 mM stock in absolute ethanol or DMSO and were diluted into the medium. The highest vehicle presence in the assay was 5% of the vehicle. After 72 hours at 37° C. the cytotoxic effect on the cells was estimated by using the colorimetric MTT assay (Mosmann (1983) J. Immunol Methods 65: 55-63) that measures mitochondrial reductase activity and serves for quantitative assessment of cellular viability. […] The EC50 values were calculated from dose response curves for each tested compound.

[2] = system: Friend cells (an erythroleukemic cell line); assay: MTT cytotoxicity, Friend cells (Example 5); format: cell-based; settings: 72 hour
Protocol: The toxicity of methotrexate derivatives of the invention (DP-MTX) was evaluated in an additional cell-culture system. The doses required to inhibit the growth of cultured Friend cells (an erythroleukemic cell line) by 50%, over a 72 hour period (ED50), were determined using a mitochondrial viability (MTT) endpoint assay.
Friend cells were seeded at a density of 10^4 cells/ml in RPMI medium supplemented with 10% FCS in 96 well plates. The cultured cells were incubated, during their linear growth phase, in the presence and absence of various concentrations of MTX derivatives. After 72 hours at 37° C., cell viability was estimated by using the colorimetric MTT assay.

rat C6 glioma cell line = assay: MTT cell growth inhibition, C6 glioma cells (Example 4); format: cell-based; settings: 72 hours, MTT assay; read-out: EC50, nMol C6 glioma
Protocol: as §1

[3] = system: CEM-MTX (MTX-resistant mutant of CEM, mutation in the RFC); assay: MTT cell growth inhibition, MTX-resistant CEM-MTX cells (Example 4); format: cell-based, human; settings: for EC50: 72 hours, MTT assay, read-out: EC50, nMol CEM-MTX
Protocol: A series of methotrexate derivatives were screened for their inhibitory effect on cell growth. Three tumor cell lines were used for this screen: i) human leukemia cell line CCRF-CEM which is MTX-sensitive (herein denoted as CEM), ii) a mutant of CEM cell line which is MTX-resistant due to a mutation in the RFC (herein denoted as CEM-MTX; provided by Dr. Y. Assraf, Technion, Israel), and iii) rat C6 glioma cell line.
Cells were seeded at a density of 10^4 cells/ml in RPMI medium supplemented with 10% FCS in 96 well plates. The cultured cells were incubated, during their linear growth phase, in the presence and absence of various concentrations of MTX derivatives. The tested compounds were prepared as 1 mM stock in absolute ethanol or DMSO and were diluted into the medium. The highest vehicle presence in the assay was 5% of the vehicle. After 72 hours at 37° C. the cytotoxic effect on the cells was estimated by using the colorimetric MTT assay (Mosmann (1983) J. Immunol Methods 65: 55-63) that measures mitochondrial reductase activity and serves for quantitative assessment of cellular viability. Drug concentration required for inhibiting the growth of 50% of cell population in culture over a 72 hour period incubation, is defined as EC50.
The EC50 values were calculated from dose response curves for each tested compound.

PLA2 = settings: isoform not stated; read-out: IC50 of known inhibitors of PLA2; cited from earlier work
L1210 = assay: MTT cytotoxicity, parent L1210 cells (Example 9); format: cell-based; settings: Mus musculus
[4] = system: RFC-mediated MTX-resistant cell line (L1210-MTX); assay: MTT cytotoxicity, L1210-MTX cells (Example 9); format: cell-based; settings: Mus musculus

Compound	EC50 [1]	ED50 [2]	EC50 (rat C6 glioma cell line)	EC50 [3]	also measured
CCCCCCCCCCCCCCCCCC(=O)OC[C@H](COP(=O)([O-])OCC[N+](C)(C)C)OC(=O)CCCCCCCNC(=O)C(CCC(=O)O)NC(=O)c1ccc(N(C)Cc2cnc3nc(N)nc(N)c3n2)cc1 (stereo partly drawn) [DP-MTX-142, 1-Stearoyl-2-[8-(α-MTX amido)-Octanoyl]-sn-Glycero-3-phosphocholine]	6.34 µM	3000 nmol	36 µM	11.6 µM	
CC(Cc1ccc(O)c(O)c1)C(C)Cc1ccc(O)c(O)c1 (stereo not drawn) [NDGA]					IC50 (PLA2): 40 µM
CCCCCCCCCCCCOC(=O)[C@H](CCC(=O)O)NC(=O)c1ccc(N(C)Cc2cnc3nc(N)nc(N)c3n2)cc1 [α-C12H25-MTX, α:-dodecylate-MTX]	0.088 µM			9.42 µM	inhibiting the growth of the MTX-resistant cell line, CEM-MTX (in words) [3]: not effective
CCCCCCCCCCCCCCCCCC(=O)OC[C@H](COP(=O)([O-])OCC[N+](C)(C)C)OC(=O)CCNC(=O)C(CCC(=O)O)NC(=O)c1ccc(N(C)Cc2cnc3nc(N)nc(N)c3n2)cc1 (stereo partly drawn) [DP-MTX-93, 1-Stearoyl-2-[3-(α-MTX amido)-Propanoyl]-sn-Glycero-3-phosphocholine]	0.027 µM	97.5 nmol	0.417 µM	4.65 µM	
CCCCCCCCCCCCOC(=O)CC[C@H](NC(=O)c1ccc(N(C)Cc2cnc3nc(N)nc(N)c3n2)cc1)C(=O)OCCCCCCCCCCCC [α-C12H25-MTX-γ-C12H25, α-dodecylate-MTX-γ-dodecylate]	4.86 µM		0.807 µM	5.09 µM	inhibiting the growth of the MTX-resistant cell line, CEM-MTX (in words) [3]: not effective
CCCCCCCCCCCCOC(=O)CC[C@H](NC(=O)c1ccc(N(C)Cc2cnc3nc(N)nc(N)c3n2)cc1)C(=O)O [γ-C12H25-MTX, γ-dodecylate-MTX]	0.013 µM			4.86 µM	inhibiting the growth of the MTX-resistant cell line, CEM-MTX (in words) [3]: not effective
CCCCCCCCCCCCCCCCCC(=O)OC[C@H](COP(=O)([O-])OCC[N+](C)(C)C)OC(=O)CCCCCCCNC(=O)[C@H](CCC(=O)OCCCCCCCCCCCC)NC(=O)c1ccc(N(C)Cc2cnc3nc(N)nc(N)c3n2)cc1 [DP-MTX-127, 1-Stearoyl-2-[8-(γ-dodecylate-α-MTX amido)-Octanoyl]-sn-Glycero-3-phosphocholine]			0.795 µM		
CCCCCCCCCCCCCCCCCC(=O)OC[C@H](COP(=O)([O-])OCC[N+](C)(C)C)OC(=O)CCNC(=O)[C@H](CCC(=O)OCCCCCCCCCCCC)NC(=O)c1ccc(N(C)Cc2cnc3nc(N)nc(N)c3n2)cc1 [DP-MTX-128, 1-Stearoyl-2-[3-(γ-dodecylate-α-MTX amido)Propanoyl]-sn-Glycero-3-phosphocholine]	0.771 µM			1.6 µM	
CCN(CC)CCCC(C)Nc1c2ccc(Cl)cc2nc2ccc(OC)cc12 (stereo not drawn) [Quinacrine]					IC50 (PLA2): 390 µM
CCCCCCCCCCCCCCCCCC(=O)OC[C@H](COP(=O)([O-])OCC[N+](C)(C)C)OC(=O)CCCNC(=O)C(CCC(=O)O)NC(=O)c1ccc(N(C)Cc2cnc3nc(N)nc(N)c3n2)cc1 (stereo partly drawn) [DP-MTX-129, 1-Stearoyl-2-[4-(α-MTX amido)-Butanoyl]-sn-Glycero-3-phosphocholine]	0.821 µM	97.5 nmol	3.11 µM	5.98 µM	
CC(=O)O[C@H]1C(=O)[C@@]2(C)[C@H]([C@H](OC(=O)c3ccccc3)[C@]3(O)C[C@H](OC(=O)[C@H](O)[C@@H](NC(=O)c4ccccc4)c4ccccc4)C(C)=C1C3(C)C)[C@]1(OC(C)=O)CO[C@@H]1C[C@@H]2O [TAX, Taxol]					EC50 (L1210): 0.008 µM; EC50 [4]: 0.008 µM
CCCCCCCCCCCCCCCCCC(=O)OC[C@H](COP(=O)([O-])OCC[N+](C)(C)C)OC(=O)CCCCCNC(=O)C(CCC(=O)O)NC(=O)c1ccc(N(C)Cc2cnc3nc(N)nc(N)c3n2)cc1 (stereo partly drawn) [DP-MTX-106, 1-Stearoyl-2-[6-(α-MTX amido)-Hexanoyl]-sn-Glycero-3-phosphocholine]	0.499 µM	390 nmol	3.22 µM	8.4 µM	
